Reference: article PMC8624133, “10th Trends in Medical Mycology Held on 8 to 11 October 2021, Aberdeen, Scotland, Organized by the European Confederation of Medical Mycology (ECMM)” (Journal of Fungi, 2021)
≈ marks a conversion by molar mass, not a printed value.

How the values were obtained:
[1] = tested on: A. niger complex; test: EUCAST E.Def 9.3.2 susceptibility, CPA isolates; type: cell-based, Aspergillus niger complex; settings: n = 7, ECOFFs
[2] = tested on: C. auris clinical strains; test: organism not typed; type: cell-based, Candida auris; settings: range, 78 strains from patients with COVID-19
[3] = tested on: McLDM strains; test: EUCAST MIC, S. cerevisiae overexpressing M. circinelloides LDM, resistance phenotypes; type: cell-based, Saccharomyces cerevisiae
[4] = tested on: Exophiala phaeomuriformis; test: MIC, CLSI M27-A3; type: cell-based; settings: read-out: MIC values
Method in brief: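 Isolate recovered from aviation kerosene by 0.22 μm membrane filtration, grown on potato dextrose agar at 30 °C for seven days and identified by ITS sequencing. Susceptibility to clinical antifungals tested per CLSI M27-A3.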

[5] = tested on: C. auris Isolate B and Isolate C; test: microbe, parasite or virus in culture; type: cell-based, Candida auris
[6] = tested on: azole-resistant A. fumigatus SS clinical strains; test: EUCAST E.DEF 9.3.2; type: cell-based; settings: Aspergillus fumigatus
[7] = tested on: Parathyridaria percutanea; test: In vitro antifungal susceptibility; type: cell-based
[8] = tested on: F. verticillioides; test: Etest susceptibility; type: cell-based, Fusarium verticillioides
[9] = tested on: C. auris; test: CLSI M27-A3 broth microdilution; type: cell-based, Candida auris; settings: for MIC: Candidozyma auris, read-out: GM MIC
[10] = tested on: nine strains of Candida spp.; test: CLSI M27-A3 broth microdilution; type: cell-based; settings: nine strains; for MIC: Candida, read-out: GM MIC
[11] = tested on: A. fumigatus strains; test: EUCAST E.DEF 9.3.2 broth microdilution; type: cell-based, Aspergillus fumigatus; set-up: MIC Range: unit not given beside the values; MIC50 / MIC90: unit not given here
Description: Methods: The research was conducted on 29 A. fumigatus strains. Minimum inhibitory concentrations (MIC) were detected by broth microdilution method (BM) following EUCAST definitive document E.DEF 9.3.2 and E-test in accordance with manufacturer instructions.

[12] = tested on: A. fumigatus complex; settings: share of isolates, n = 59, EUCAST clinical breakpoints
[13] = tested on: A. fumigatus clinical isolates; test: Susceptibility of clinical isolates from CF patients; settings: all 10 clinical isolates
[14] = tested on: biofilm of filamentous fungi; test: Biofilm XTT-menadione assay; type: cell-based
Description: Materials & Methods: Eight strains are studied: Fusarium solani, Fusarium dimerum, Lomentospora prolificans, Scedosporium apiospermum, Aspergillus flavus, Aspergillus fumigatus and two azole resistant A. fumigatus.
Biofilms were formed after a 90-min adhesion phase followed by the addition of RPMI medium and after a 48 h at 37 °C. Antifungals at different concentrations were added, either after the adhesion phase or after the 48 h of incubation to study their effect on the formation and on the preformed biofilm. After washing, a mixture of XTT-menadione was added to the wells. After 60 min at 37 °C, the OD (optical density) is measured at 450 and 630 nm. An optical microscope observation allows the visualization of elements of the biofilm.

[15] = tested on: Trichosporon isolates; test: CLSI broth microdilution; type: cell-based, Trichosporon spp.; settings: read-out: GM MIC
[16] = tested on: Rasamsonia argillacea species complex; test: Antifungal susceptibility testing; type: cell-based; settings: sputum isolate of a CF patient
[17] = tested on: Aspergillus spp. isolates; test: Gradient strip susceptibility (Liofilchem); type: cell-based
[18] = tested on: Cryptococcal isolates; test: CLSI broth micro dilution; type: cell-based, Cryptococcus neoformans, C. gattii
[19] = tested on: C. albicans; type: cell-based, Candida albicans
[20] = tested on: C. parapsilosis; type: cell-based, Candida parapsilosis
[21] = tested on: C. glabrata; type: cell-based, Candida glabrata
[22] = tested on: C. tropicalis; type: cell-based, Candida tropicalis
[23] = tested on: Other species of Candida; type: cell-based, Candida spp.
[24] = tested on: C. guilliermondii; test: EUCAST E. Def 7.3.2 microdilution; type: cell-based, Candida guilliermondii; settings: n = 62

`CCC(C)n1ncn(-c2ccc(N3CCN(c4ccc(OCC5COC(Cn6cncn6)(c6ccc(Cl)cc6Cl)O5)cc4)CC3)cc2)c1=O` (stereo not drawn) [itraconazole] was tested, and the Non-wild type isolates [1] was 29%, the MIC [2] was 0.12 to 16 µg/mL (≈ 0.17 to 22.7 µM) and the “MICs compared to AD2Δ” value [3] was “not affected”. For the same molecule, the MIC [4] was 0.25 µg/mL (≈ 0.354 µM), the “change of MIC” value [5] was “largely unchanged” and the “reduction in MIC” value ([5]; Isolate C with ERG11 WT in place of K143R) was “unchanged”. For the same molecule, the MIC ([6]; strain from pleural fluid of an ICU patient, no mutations in cyp51A) was greater than 8 µg/mL, the MIC ([6]; two strains from a cystic fibrosis patient, TR34/L98H) was greater than 8 µg/mL and the “in vitro susceptibility category” value [7] was “resistance”. The “minimum inhibitory concentration (MIC), in words” value [8] was “high values”, the MIC Range [9] was 0.125 to 1 µg/mL and the MIC [9] was 0.12 µg/mL (≈ 0.17 µM). The MIC [10] was 0.11 µg/mL (≈ 0.156 µM), the MIC50 ([11]; 28 h) was 0.5 and the MIC90 ([11]; 28 h) was 0.5. For the same molecule, the “MIC Range” value ([11]; 28 h, 29 strains) was 0.5–8, the MIC50 ([11]; 48 h) was 0.5 and the MIC90 ([11]; 48 h) was 1. For the same molecule, the “MIC Range” value ([11]; 48 h) was 0.5–16, the Resistance [12] was 5% and the susceptibility [13] was “susceptible”.

For `C[C@@H]1[C@H](O)[C@@H](C)/C=C/C=C/C=C/C=C/C=C/C=C/C=C/[C@H](O[C@@H]2O[C@H](C)[C@@H](O)[C@H](N)[C@@H]2O)C[C@@H]2O[C@](O)(C[C@@H](O)C[C@@H](O)[C@H](O)CC[C@@H](O)C[C@@H](O)CC(=O)O[C@H]1C)C[C@H](O)[C@H]2C(=O)O` [amphotericin B], the MIC [2] was 0.12 to 2 µg/mL (≈ 0.13 to 2.16 µM), the “MICs compared to AD2Δ” value [3] was “not affected” and the “number of strains with 100% inhibition of biofilm formation” value [14] was “two”. The MIC [15] was 0.9 µg/mL (≈ 0.974 µM), the MIC [4] was 2 µg/mL (≈ 2.16 µM) and the “minimal inhibitory concentrations (MIC)” value [16] was “high minimal inhibitory concentrations”. The “isolates with in vitro high MIC values” ([17]; first isolate per species and patient) was 19.6%, the MIC ([17]; gradient strips, ten isolates (5 A. terreus, 3 A. flavus, 1 A. fumigatus, 1 A. nidulans)) was greater than 32 µg/mL and the “MIC50” value [18] was 0.25 µg/mL (≈ 0.271 µM). For the same molecule, the “MIC90” value [18] was 0.5 µg/mL (≈ 0.541 µM), the “minimum inhibitory concentration (MIC), in words” value [8] was “lower values” and the MIC Range [9] was 0.125 to 2 µg/mL. For the same molecule, the MIC [9] was 0.43 µg/mL (≈ 0.465 µM), the MIC [10] was 0.13 µg/mL (≈ 0.141 µM) and the MIC Range [10] was 0.03 to 2 µg/mL. For the same molecule, the “I (intermediate) isolates, n (%)” value [19] was 4 (2%), the “S (sensitive) isolates, n (%)” value [19] was 196 (97%) and the “I (intermediate) isolates, n (%)” value [20] was 1 (0.6). The “S (sensitive) isolates, n (%)” value [20] was 169 (98.3%), the “I (intermediate) isolates, n (%)” value [21] was 2 (2.8%) and the “S (sensitive) isolates, n (%)” value [21] was 69 (97.2%). The “I (intermediate) isolates, n (%)” value [22] was 0 (0%), the “S (sensitive) isolates, n (%)” value [22] was 57 (100%) and the “I (intermediate) isolates, n (%)” value [23] was 0 (0%). For the same molecule, the “S (sensitive) isolates, n (%)” value [23] was 26 (100%), the MIC50 ([24]; Meyerozyma guilliermondii) was 0.25 µg/mL (≈ 0.271 µM) and the MIC90 ([24]; Meyerozyma guilliermondii) was 0.25 µg/mL (≈ 0.271 µM). For the same molecule, the GM [24] was 0.177 µg/mL, the “MIC Range” value [24] was 0.06 to 0.5 µg/mL and the susceptibility [13] was “susceptible”.
